# Data as given in US12220440B2, “Drug composition, method for treating infection, disinfecting composition, and drug adjuvant” (priority 2022, dated 2025).
# Like-named read-outs stand apart in the source and are kept apart here. Peptide text beside a SMILES is read from it.
# Experiments:
# Type in all cases: cell-based
# [1] = tested on: S. Typhimurium PY01; experiment: MIC, colistin-susceptible S. Typhimurium, with and without otilonium bromide; conditions: Salmonella enterica
# [2] = tested on: P. aeruginosa (colistin-susceptible); experiment: MIC, colistin-susceptible P. aeruginosa isolates, with and without otilonium bromide; conditions: Pseudomonas aeruginosa
# [3] = tested on: colistin-resistant E. coli; experiment: Time-kill curves
# Procedure: (§1) However, the effective bactericidal concentration of colistin could be reduced to 8 μg/ml in the presence of 20 μg/ml of otilonium bromide. For colistin-susceptible E. coli, 8 μg/ml of colistin is required to eradicate the strains. However, in the presence of 20 μg/ml of otilonium bromide 1 μg/ml colistin is sufficient to achieve complete eradication of the organism. […] Thus, without intending to be limited by theory, it is believed that this synergistic mechanism is not limited to the inhibition of the colistin resistance mechanism.
# [4] = tested on: colistin-susceptible E. coli; experiment: Time-kill curves
# Procedure: as §1
# [5] = tested on: A. baumannii 17978; experiment: Killing of starvation-induced tolerant cells; conditions: with otilonium bromide, 24-hour treatment
# Procedure: (§2) Starvation-induced bacterial sub-population tolerant cells of colistin-resistant and colistin-susceptible E. coli and A. baumannii strains are tested against the bactericidal effect of the combination of otilonium bromide and colistin. […] The incubation temperature is 37° C. Ob and colistin are added at the same time.
# [6] = tested on: colistin-susceptible E. coli J53; experiment: Killing of starvation-induced tolerant cells; conditions: with otilonium bromide, 24-hour treatment
# Procedure: as §2
# [7] = tested on: P. aeruginosa PAO1 and PAERC 11.603; experiment: Divalent ion MIC-dependency in supplemented MHB
# Procedure: In FIGS. 5e and 5f, colistin MICs of P. aeruginosa PAO1 and PAERC 11.603, respectively, are determined in MHB supplemented with different Ca^2+ ion concentrations.
# Accordingly, it is believed that the addition of a chelant; or a chelant for divalent ions; or a divalent cation chelant, may further improve the activity of the drug formulation, method of use/treatment, disinfection composition, etc. of the present invention.
# [8] = in the presence of 20 μg/ml of otilonium bromide
structure (smiles),measurement,setting,value
"CCC(C)CCCC(=O)N[C@@H](CCN)C(=O)N[C@H](C(=O)N[C@@H](CCN)C(=O)N[C@H]1CCNC(=O)[C@H]([C@@H](C)O)NC(=O)[C@H](CCN)NC(=O)[C@H](CCN)NC(=O)[C@H](CC(C)C)NC(=O)[C@@H](CC(C)C)NC(=O)[C@H](CCN)NC1=O)[C@@H](C)O (stereo partly drawn) [Colistin] (HELM PEPTIDE1{[CCC(C)CCCC(=O)[*:2]].[Dab].T.[Dab].[Dab].[Dab].[dL].L.[Dab].[Dab].T}$PEPTIDE1,PEPTIDE1,5:R3-11:R2$$$V2.0)",MIC,"[1]; colistin alone, read-out: Colistin MIC, Colistin",2 µg/mL
same,MIC,"[1]; in the presence of 10 ug/ml Ob, read-out: Colistin MIC, Colistin + 10 ug/ml Ob",0.125 µg/mL
same,MIC,"[1]; in the presence of 20 ug/ml Ob, read-out: Colistin MIC, Colistin + 20 ug/ml Ob",0.03 µg/mL
same,MIC,"[2]; P. aeruginosa PA01, colistin-susceptible, colistin alone, read-out: Colistin MIC, Colistin",2 µg/mL
same,MIC,"[2]; P. aeruginosa PA01, colistin-susceptible, in the presence of 10 ug/ml Ob, read-out: Colistin MIC, Colistin + 10 ug/ml Ob",0.5 µg/mL
same,MIC,"[2]; P. aeruginosa PA01, colistin-susceptible, in the presence of 20 ug/ml Ob, read-out: Colistin MIC, Colistin + 20 ug/ml Ob",0.25 µg/mL
same,MIC,"[2]; P. aeruginosa PAER 2011-3010, colistin-susceptible, colistin alone, read-out: Colistin MIC, Colistin",2 µg/mL
same,MIC,"[2]; P. aeruginosa PAER 2011-3010, colistin-susceptible, in the presence of 10 ug/ml Ob, read-out: Colistin MIC, Colistin + 10 ug/ml Ob",1 µg/mL
same,MIC,"[2]; P. aeruginosa PAER 2011-3010, colistin-susceptible, in the presence of 20 ug/ml Ob, read-out: Colistin MIC, Colistin + 20 ug/ml Ob",0.25 µg/mL
same,MIC,"[2]; P. aeruginosa PAER 2011-3252, colistin-susceptible, colistin alone, read-out: Colistin MIC, Colistin",2 µg/mL
same,MIC,"[2]; P. aeruginosa PAER 2011-3252, colistin-susceptible, in the presence of 10 ug/ml Ob, read-out: Colistin MIC, Colistin + 10 ug/ml Ob",0.5 µg/mL
same,MIC,"[2]; P. aeruginosa PAER 2011-3252, colistin-susceptible, in the presence of 20 ug/ml Ob, read-out: Colistin MIC, Colistin + 20 ug/ml Ob",0.25 µg/mL
same,MIC,"[2]; P. aeruginosa PAER 2012-1527, colistin-susceptible, colistin alone, read-out: Colistin MIC, Colistin",2 µg/mL
same,MIC,"[2]; P. aeruginosa PAER 2012-1527, colistin-susceptible, in the presence of 10 ug/ml Ob, read-out: Colistin MIC, Colistin + 10 ug/ml Ob",2 µg/mL
same,MIC,"[2]; P. aeruginosa PAER 2012-1527, colistin-susceptible, in the presence of 20 ug/ml Ob, read-out: Colistin MIC, Colistin + 20 ug/ml Ob",0.5 µg/mL
same,MIC,"[2]; P. aeruginosa PAERC 10.296, colistin-susceptible, colistin alone, read-out: Colistin MIC, Colistin",2 µg/mL
same,MIC,"[2]; P. aeruginosa PAERC 10.296, colistin-susceptible, in the presence of 10 ug/ml Ob, read-out: Colistin MIC, Colistin + 10 ug/ml Ob",0.0625 µg/mL
same,MIC,"[2]; P. aeruginosa PAERC 10.296, colistin-susceptible, in the presence of 20 ug/ml Ob, read-out: Colistin MIC, Colistin + 20 ug/ml Ob",0.0625 µg/mL
same,MIC,"[2]; P. aeruginosa PAERC 11.2309, colistin-susceptible, colistin alone, read-out: Colistin MIC, Colistin",2 µg/mL
same,MIC,"[2]; P. aeruginosa PAERC 11.2309, colistin-susceptible, in the presence of 10 ug/ml Ob, read-out: Colistin MIC, Colistin + 10 ug/ml Ob",0.5 µg/mL
same,MIC,"[2]; P. aeruginosa PAERC 11.2309, colistin-susceptible, in the presence of 20 ug/ml Ob, read-out: Colistin MIC, Colistin + 20 ug/ml Ob",2 µg/mL
same,MIC,"[2]; P. aeruginosa PAERC 11.236, colistin-susceptible, colistin alone, read-out: Colistin MIC, Colistin",2 µg/mL
same,MIC,"[2]; P. aeruginosa PAERC 11.236, colistin-susceptible, in the presence of 10 ug/ml Ob, read-out: Colistin MIC, Colistin + 10 ug/ml Ob",0.5 µg/mL
same,MIC,"[2]; P. aeruginosa PAERC 11.236, colistin-susceptible, in the presence of 20 ug/ml Ob, read-out: Colistin MIC, Colistin + 20 ug/ml Ob",0.5 µg/mL
same,MIC,"[2]; P. aeruginosa PAERC 11.603, colistin-susceptible, colistin alone, read-out: Colistin MIC, Colistin",2 µg/mL
same,MIC,"[2]; P. aeruginosa PAERC 11.603, colistin-susceptible, in the presence of 10 ug/ml Ob, read-out: Colistin MIC, Colistin + 10 ug/ml Ob",0.5 µg/mL
same,MIC,"[2]; P. aeruginosa PAERC 11.603, colistin-susceptible, in the presence of 20 ug/ml Ob, read-out: Colistin MIC, Colistin + 20 ug/ml Ob",0.25 µg/mL
same,MIC,"[2]; P. aeruginosa PAERC 12.1478, colistin-susceptible, colistin alone, read-out: Colistin MIC, Colistin",2 µg/mL
same,MIC,"[2]; P. aeruginosa PAERC 12.1478, colistin-susceptible, in the presence of 10 ug/ml Ob, read-out: Colistin MIC, Colistin + 10 ug/ml Ob",0.5 µg/mL
same,MIC,"[2]; P. aeruginosa PAERC 12.1478, colistin-susceptible, in the presence of 20 ug/ml Ob, read-out: Colistin MIC, Colistin + 20 ug/ml Ob",0.125 µg/mL
same,colistin concentration inhibiting growth (time-kill),[3]; colistin alone,≥ 32 µg/mL
same,effective bactericidal concentration of colistin (time-kill),[3]; [8],8 µg/mL
same,colistin required to eradicate the strains (time-kill),[4]; colistin alone,8 µg/mL
same,colistin sufficient for complete eradication (time-kill),[4]; [8],1 µg/mL
same,concentration of colistin required to completely eradicate tolerant sub-population,[5],1 µg/mL
same,concentration of colistin required to completely eradicate tolerant sub-population,[6],1 µg/mL
same,effect of supplemented Ca2+ and Mg2+ on MIC,[7],increase the MIC
